According to patent publication US8653263B2 (Janssen Pharmaceutica, priority 2009, dated 2014):

biological target: human orexin-2 receptor (Homo sapiens (Human), UniProt O43614); assay: Human orexin 2 receptor radioligand binding ([3H]-EMPA competition); conditions: HEK293 cells stably expressing human orexin-2 receptor; [3H]-EMPA 5 nM final; apparent Ki=IC50/(1+C/Kd), Kd=2 nM; read-out: OR 2 Ki
Sequence (O43614 whole entry): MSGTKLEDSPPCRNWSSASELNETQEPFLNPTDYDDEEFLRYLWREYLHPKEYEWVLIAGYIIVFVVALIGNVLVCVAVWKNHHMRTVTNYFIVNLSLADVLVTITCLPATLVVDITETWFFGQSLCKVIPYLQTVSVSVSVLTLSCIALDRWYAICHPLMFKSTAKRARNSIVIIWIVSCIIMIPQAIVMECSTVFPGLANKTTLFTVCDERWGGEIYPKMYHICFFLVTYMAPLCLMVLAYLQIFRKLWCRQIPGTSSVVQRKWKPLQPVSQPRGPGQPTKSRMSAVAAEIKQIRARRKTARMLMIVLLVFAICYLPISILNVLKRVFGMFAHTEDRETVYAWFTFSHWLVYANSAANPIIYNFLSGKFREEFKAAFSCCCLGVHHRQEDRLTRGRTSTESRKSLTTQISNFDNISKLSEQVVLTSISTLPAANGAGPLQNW

Ki	SMILES
0.004 µM	Cc1nc(N2CC3CN(C(=O)c4ccccc4-c4ncn(C)n4)CC3C2)nc(C)c1Cl (centres unmarked) [Example 320, 2-(5-Chloro-4,6-dimethylpyrimidin-2-yl)-5-{[2-(1-methyl-1H-1,2,4-triazol-3-yl)phenyl]carbonyl}octahydropyrrolo[3,4-c]pyrrole]
0.901 µM	COc1ccc(N2CC3CN(C(=O)c4ccccc4-c4cccs4)CC3C2)nc1 (centres unmarked) [Example 125, 2-(5-Methoxypyridin-2-yl)-5-[(2-thiophen-2-ylphenyl)carbonyl]octahydropyrrolo[3,4-c]pyrrole]
0.028 µM	COc1ccc(C(=O)N2CC3CN(c4cc(N(C)C)nc(C)n4)CC3C2)c(-n2nccn2)c1 (centres unmarked) [Example 391, (5-(6-(Dimethylamino)-2-methylpyrimidin-4-yl)hexahydropyrrolo[3,4-c]pyrrol-2(1H)-yl)(4-methoxy-2-(2H-1,2,3-triazol-2-yl)phenyl)methanone]
0.25 µM	O=C(c1ccccc1-c1cccs1)N1CC2CN(c3ccc4ccccc4n3)CC2C1 (centres unmarked) [Example 33, 2-{5-[(2-Thiophen-2-ylphenyl)carbonyl]hexahydropyrrolo[3,4-c]pyrrol-2(1H)-yl}quinoline]
0.277 µM	Cc1cc(C)nc(N2CC3CN(C(=O)c4cccc5c4OCCCO5)CC3C2)n1 (centres unmarked) [Example 334, (3,4-Dihydro-2H-benzo[b][1,4]dioxepin-6-yl)-[5-(4,6-dimethyl-pyrimidin-2-yl)-hexahydro-pyrrolo[3,4-c]pyrrol-2-yl]-methanone]
0.025 µM	Cc1nc(N2CC3CN(C(=O)c4ncccc4-n4nccn4)CC3C2)nc(C)c1C (centres unmarked) [Example 323, 2-{[3-(2H-1,2,3-Triazol-2-yl)pyridin-2-yl]carbonyl}-5-(4,5,6-trimethylpyrimidin-2-yl)octahydropyrrolo[3,4-c]pyrrole]
0.014 µM	COc1cc(N2CC3CN(C(=O)c4ccccc4-n4nccn4)CC3C2)nc(N(C)C)n1 (centres unmarked) [Example 5, 4-Methoxy-N,N-dimethyl-6-[5-{[2-(2H-1,2,3-triazol-2-yl)phenyl]carbonyl}hexahydropyrrolo-[3,4-c]pyrrol-2(1H)-yl]pyrimidin-2-amine]
5 µM	Cc1cc(N2CC3CN(C(=O)c4nc(C)sc4-c4ccc(F)cc4)CC3C2)nc(C)n1 (centres unmarked) [Example 253, 2-(2,6-Dimethylpyrimidin-4-yl)-5-{[5-(4-fluorophenyl)-2-methyl-1,3-thiazol-4-yl]carbonyl}octahydropyrrolo[3,4-c]pyrrole]
0.55 µM	COc1cc(OC)nc(N2CC3CN(C(=O)c4ccccc4-n4cccn4)CC3C2)n1 (centres unmarked) [Example 78, 2-(4,6-Dimethoxypyrimidin-2-yl)-5-{[2-(1H-pyrazol-1-yl)phenyl]carbonyl}octahydro-pyrrolo[3,4-c]pyrrole]
1.04 µM	O=C(c1ccccc1-c1ccccc1)N1CC2CN(c3nc4ccccc4o3)CC2C1 (centres unmarked) [Example 184, (5-Benzooxazol-2-yl-hexahydro-pyrrolo[3,4-c]pyrrol-2-yl)-biphenyl-2-yl-methanone]
0.339 µM	COc1ccnc(N2CC3CN(C(=O)c4ccccc4-c4ccccc4)CC3C2)n1 (centres unmarked) [Example 177, 2-(Biphenyl-2-ylcarbonyl)-5-(4-methoxypyrimidin-2-yl)octahydropyrrolo[3,4-c]pyrrole]
5 µM	COc1cccc(C(=O)N2CC3CN(c4nc(C)cc(C)n4)CC3C2)c1OC (centres unmarked) [Example 273, (2,3-Dimethoxyphenyl)(5-(4,6-dimethylpyrimidin-2-yl)hexahydropyrrolo[3,4-c]pyrrol-2(1H)-yl)methanone]
0.033 µM	CN(C)c1cc(N2CC3CN(C(=O)c4ccccc4-n4nccn4)CC3C2)nc(C(F)(F)F)n1 (centres unmarked) [Example 2, N,N-Dimethyl-6-[5-{[2-(2H-1,2,3-triazol-2-yl)phenyl]carbonyl}hexahydropyrrolo[3,4-c]pyrrol-2(1H)-yl]-2-(trifluoromethyl)pyrimidin-4-amine]
0.017 µM	Cc1ccc(-c2ncccn2)c(C(=O)N2CC3CN(c4nc(C)cc(C)n4)CC3C2)c1 (centres unmarked) [Example 102, 2-(4,6-Dimethylpyrimidin-2-yl)-5-[(5-methyl-2-pyrimidin-2-ylphenyl)carbonyl]octahydropyrrolo[3,4-c]pyrrole]
2.1 µM	Cc1cc(C)nc(N2CC3CN(C(=O)c4cccnc4C(F)(F)F)CC3C2)n1 (centres unmarked) [Example 233, 2-(4,6-Dimethylpyrimidin-2-yl)-5-{[2-(trifluoromethyl)pyridin-3-yl]carbonyl}octahydropyrrolo[3,4-c]pyrrole]
0.011 µM	O=C(c1c(F)cccc1-n1nccn1)N1CC2CN(c3cnc4cc(F)c(F)cc4n3)CC2C1 (centres unmarked) [Example 246, (5-(6,7-Difluoroquinoxalin-2-yl)hexahydropyrrolo[3,4-c]pyrrol-2(1H)-yl)(2-fluoro-6-(2H-1,2,3-triazol-2-yl)phenyl)methanone]
9 µM	Cc1cc(C(=O)O)nc(N2CC3CN(C(=O)c4c(F)cccc4-n4nccn4)CC3C2)n1 (centres unmarked) [Example 265, 2-(5-(2-Fluoro-6-(2H-1,2,3-triazol-2-yl)benzoyl)hexahydropyrrolo[3,4-c]pyrrol-2(1H)-yl)-6-methylpyrimidine-4-carboxylic acid]
0.089 µM	Cc1cc(C)nc(N2CC3CN(C(=O)c4occc4-c4ccccc4)CC3C2)n1 (centres unmarked) [Example 13, 2-(4,6-Dimethylpyrimidin-2-yl)-5-[(3-phenylfuran-2-yl)carbonyl]octahydropyrrolo[3,4-c]pyrrole]

Ki	SMILES
0.068 µM	Cc1cc(N2CC3CN(C(=O)c4ccccc4-c4nnc[nH]4)CC3C2)nc(C(F)(F)F)n1 (centres unmarked) [Example 96, 2-[6-Methyl-2-(trifluoromethyl)pyrimidin-4-yl]-5-{[2-(4H-1,2,4-triazol-3-yl)phenyl]carbonyl}octahydropyrrolo[3,4-c]pyrrole]
0.007 µM	Cc1cc(C)nc(N2CC3CN(C(=O)c4c(F)cccc4-c4ncccn4)CC3C2)n1 (centres unmarked) [Example 73, 2-(4,6-Dimethylpyrimidin-2-yl)-5-[(2-fluoro-6-pyrimidin-2-ylphenyl)carbonyl]octahydropyrrolo[3,4-c]pyrrole]
0.181 µM	O=C(c1ccccc1-c1cccs1)N1CC2CN(c3nccc(-c4cccs4)n3)CC2C1 (centres unmarked) [Example 37, 2-[(2-Thiophen-2-ylphenyl)carbonyl]-5-(4-thiophen-2-ylpyrimidin-2-yl)octahydro-pyrrolo[3,4-c]pyrrole]
1.6 µM	COc1cccc(OC)c1C(=O)N1CC2CN(c3nc4ccc(Cl)cc4s3)CC2C1 (centres unmarked) [Example 189, [5-(6-Chloro-benzothiazol-2-yl)-hexahydro-pyrrolo[3,4-c]pyrrol-2-yl]-(2,6-dimethoxy-phenyl)-methanone]
0.227 µM	COc1ccnc(N2CC3CN(C(=O)c4cccc5ccccc45)CC3C2)n1 (centres unmarked) [Example 58, 2-(4-Methoxypyrimidin-2-yl)-5-(naphthalen-1-ylcarbonyl)octahydropyrrolo[3,4-c]pyrrole]
2.3 µM	COc1ccccc1C(=O)N1CC2CN(c3nc4ccccc4o3)CC2C1 (centres unmarked) [Example 180, (5-Benzooxazol-2-yl-hexahydro-pyrrolo[3,4-c]pyrrol-2-yl)-(2-methoxy-phenyl)-methanone]
10 µM	COc1ccc(C(=O)N2CC3CN(c4nccc(C)n4)CC3C2)c(OC)c1 (centres unmarked) [Example 186, (2,4-Dimethoxy-phenyl)-[5-(4-methyl-pyrimidin-2-yl)-hexahydro-pyrrolo[3,4-c]pyrrol-2-yl]-methanone]
0.364 µM	O=C(c1ccccc1-n1cccn1)N1CC2CN(c3nccc(-c4ccccc4)n3)CC2C1 (centres unmarked) [Example 23, 2-(4-Phenylpyrimidin-2-yl)-5-{[2-(1H-pyrazol-1-yl)phenyl]carbonyl}octahydro-pyrrolo[3,4-c]pyrrole]
0.112 µM	Cc1cc(C)nc(N2CC3CN(C(=O)c4cccc5cccc(-n6nccn6)c45)CC3C2)n1 (centres unmarked) [Example 328, [5-(4,6-Dimethyl-pyrimidin-2-yl)-hexahydro-pyrrolo[3,4-c]pyrrol-2-yl]-(8-[1,2,3]triazol-2-yl-naphthalen-1-yl)-methanone]
10 µM	Cc1cc(C)nc(N2CC3CN(C(=O)c4cccc(C)c4-n4ccnn4)CC3C2)n1 (centres unmarked) [Example 267, (5-(4,6-Dimethylpyrimidin-2-yl)hexahydropyrrolo[3,4-c]pyrrol-2(1H)-yl)(3-methyl-2-(1H-1,2,3-triazol-1-yl)phenyl)methanone]
0.29 µM	Cc1cc(C(C)C)nc(N2CC3CN(C(=O)c4cc(C(C)C)ccc4-n4nccn4)CC3C2)n1 (centres unmarked) [Example 300, 2-{[5-(1-Methylethyl)-2-(2H-1,2,3-triazol-2-yl)phenyl]carbonyl}-5-[4-methyl-6-(1-methylethyl)pyrimidin-2-yl]octahydropyrrolo[3,4-c]pyrrole]
0.23 µM	Cc1cc(C)nc(N2CC3CN(S(=O)(=O)c4ccccc4-c4ccccc4)CC3C2)n1 (centres unmarked) [Example 358, 2-([1,1′-Biphenyl]-2-ylsulfonyl)-5-(4,6-dimethylpyrimidin-2-yl)octahydropyrrolo[3,4-c]pyrrole]
0.635 µM	Cc1ccc(C)c(C(=O)N2CC3CN(c4nc(C)cc(C)n4)CC3C2)c1 (centres unmarked) [Example 224, 2-[(2,5-Dimethylphenyl)carbonyl]-5-(4,6-dimethylpyrimidin-2-yl)octahydropyrrolo[3,4-c]pyrrole]
0.019 µM	Cc1cc(C)nc(N2CC3CN(C(=O)c4ccc(F)cc4-c4ncco4)CC3C2)n1 (centres unmarked) [Example 369, (5-(4,6-Dimethylpyrimidin-2-yl)hexahydropyrrolo[3,4-c]pyrrol-2(1H)-yl)(4-fluoro-2-(oxazol-2-yl)phenyl)methanone]
0.039 µM	Cc1cc(C)nc(N2CC3CN(C(=O)c4ccccc4-c4nc(C)no4)CC3C2)n1 (centres unmarked) [Example 306, 2-(4,6-Dimethylpyrimidin-2-yl)-5-{[2-(3-methyl-1,2,4-oxadiazol-5-yl)phenyl]carbonyl}octahydropyrrolo[3,4-c]pyrrole]
0.045 µM	CCOc1ccc2ccccc2c1C(=O)N1CC2CN(c3cnc4ccccc4n3)CC2C1 (centres unmarked) [Example 145, 2-{5-[(2-Ethoxynaphthalen-1-yl)carbonyl]hexahydropyrrolo[3,4-c]pyrrol-2(1H)-yl}quinoxaline]
0.289 µM	O=C(c1ccccc1-c1ccccc1)N1CC2CN(c3nccc(-c4ccccc4)n3)CC2C1 (centres unmarked) [Example 164, 2-(Biphenyl-2-ylcarbonyl)-5-(4-phenylpyrimidin-2-yl)octahydropyrrolo[3,4-c]pyrrole]
